Assay results published in patent publication US20240417404A1, “CRYSTALLINE FORMS OF N-[4-[4-(4-MORPHOLINYL)-7H-PYRROLO[2,3-d]PYRIMIDIN-6-YL]PHENYL]-4-[[3(R)-[(1-OXO-2-PROPEN-1-YL)AMINO]-1-[sequence]]METHYL]-2-PYRIDINECARBOXAMIDE AS IRREVERSIBLE INHIBITORS OF MENIN-MLL INTERACTION” (BIOMEA FUSION, INC., priority 2023, published 2024).
Entries after “also recorded” stand apart in the source; their conditions may differ. Where two headings read alike, the source gives them in different places.

How the values were obtained:
[1] = target: T1, Menin protein in DLBCL cell line TOLEDO (Homo sapiens, UniProt O00255); experiment: Menin protein expression in TOLEDO cells (Wes automated western blotting); type: cell-based; conditions: 1 μM, fourteen hours, normalized to GAPDH, referenced to DMSO
T1 construct: endogenous in cells; host or cells: TOLEDO (DLBCL cell line)
T1 sequence (O00255 whole entry): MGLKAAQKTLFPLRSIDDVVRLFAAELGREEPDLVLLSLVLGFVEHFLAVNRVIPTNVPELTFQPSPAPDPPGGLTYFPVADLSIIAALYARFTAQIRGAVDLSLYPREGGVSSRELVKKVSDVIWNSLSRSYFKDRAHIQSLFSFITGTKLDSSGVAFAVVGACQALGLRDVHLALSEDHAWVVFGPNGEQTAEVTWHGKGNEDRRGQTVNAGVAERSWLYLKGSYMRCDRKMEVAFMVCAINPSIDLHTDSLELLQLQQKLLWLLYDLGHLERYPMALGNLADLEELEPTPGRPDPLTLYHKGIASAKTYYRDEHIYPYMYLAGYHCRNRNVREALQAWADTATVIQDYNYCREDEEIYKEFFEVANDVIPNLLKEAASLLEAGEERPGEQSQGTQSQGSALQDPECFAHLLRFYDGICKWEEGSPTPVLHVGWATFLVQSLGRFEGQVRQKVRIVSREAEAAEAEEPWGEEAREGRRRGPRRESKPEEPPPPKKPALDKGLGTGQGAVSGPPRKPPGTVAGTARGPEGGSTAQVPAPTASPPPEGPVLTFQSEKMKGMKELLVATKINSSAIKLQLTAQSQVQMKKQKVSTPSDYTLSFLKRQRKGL
Procedure: (§1) DLBCL cell line TOLEDO was cultured in the presence of Compound A or clinical reversible menin inhibitors for six and fourteen hours. Menin protein expression was reduced up to 60% at 1 μM by Compound A after fourteen hours compared to clinical reversible inhibitors at <20% at similar concentrations. Menin protein expression was measured by the Wes system and analyzed using the Compass software (automated western blotting, Protein Simple). Signal was normalized to GAPDH and referenced to DMSO control (FIG. 36E). DLBCL and MM cell lines were cultured with Compound A, bortezomib (PS-341), or DMSO for four days and cell proliferation was measured by Cell Titer Glo. Ex vivo studies of DLBCL and MM models were conducted by measurement of cell proliferation (Cell Titer Glo) after six days of treatment with Compound A, PS-341, or DMSO control.

[2] = test system: KRAS and MEN1 expression in MiaPaCa-2 cells; experiment: RNA-seq gene expression in MiaPaCa-2 cells; type: cell-based, human; conditions: 0.5 μM and 1 μM, twenty-four hours
Procedure: MOLM-13 and MiaPaCa-2 cells were incubated with Compound A for twenty-four hours and were analyzed by RNA-seq on an Illumina NextSeq 550 platform. […] Cell viability was measured using CellTiter Glo. Human ex vivo PDX tissue models harboring KRAS mutations were cultured with Compound A and clinical reversible menin inhibitors for six days. Cell viability was measured using CellTiter Glo.

[3] = test system: Pfeiffer; experiment: DLBCL cell line proliferation (Cell Titer Glo, four days): Pfeiffer; type: cell-based; conditions: GCB
Procedure: as §1

[4] = test system: Zucker Diabetic Fatty (ZDF) rats; experiment: Glycemic control and HbA1c in Zucker Diabetic Fatty rats, 28-day dosing plus washout; type: in vivo
Procedure: Rats were treated daily with Compound 10, liraglutide, or vehicle for twenty-eight days and monitored for an additional twenty-eight days post-treatment.
Zucker Diabetic Fatty (ZDF) rats were dosed daily with Compound 10, liraglutide, or vehicle for twenty-eight days (n=10 per group) and monitored for an additional twenty-eight days post last dose. Fasting blood glucose, insulin, C-peptide levels, HbA1c, oral glucose tolerance test (OGTT), and body weight were monitored during and post-treatment.
ZDF Rat Model—five treatment groups 1. Vehicle; 2. Compound 10 at 40 mg/kg; 3. Compound 10 at 85 mg/kg; 4. Compound 10 at 170 mg/kg; and 5. Liraglutide at 0.2 mg/kg; n=10 per group. Group 2 dose (40 mg/kg) was increased to 200 mg/kg on Day 17 for rest of the dosing phase. Daily dosing zero to twenty-eight days days QD→drug wash out twenty-eight to fifty-six days. Rats were monitored for the following parameters through dosing and wash out phases—body weight, fasting blood sugar, blood insulin, C-peptide, OGTT, and HbA1C.

[5] = test system: JJN3; experiment: MM cell line proliferation (Cell Titer Glo, four days): JJN3; type: cell-based; conditions: JJN3, t(14; 16), NRAS Q61K
Procedure: as §1

[6] = test system: DHL, THL, and DEL DLBCL cell lines; experiment: DLBCL cell line panel proliferation (Cell Titer Glo, four days); type: cell-based
Procedure: Compound A was tested against a THL cell line (VAL), and a DEL cell line (U2932). An expanded panel of DHL cell lines were tested for sensitivity to Compound A. Ex vivo patient samples of THL and MYC-amplified DLBCL were tested with Compound A. Sensitivity of THL and MYC-driven DLBCL in both in vitro and ex vivo models were compared with clinical reversible menin inhibitors. Compound A was tested against a panel of MM cell lines and ex vivo MM patient samples of p53del, 13qdel, and relapsed/refractory cases.
as §1

[7] = test system: U2932; experiment: DLBCL cell line proliferation (Cell Titer Glo, four days): U2932; type: cell-based; conditions: U2932, DEL-ABC, MYC/BCL2 Overexpression
Procedure: as §1

[8] = test system: OCI-LY7; experiment: DLBCL cell line proliferation (Cell Titer Glo, four days): OCI-LY7; type: cell-based; conditions: OCI-LY7, GCB
Procedure: as §1

[9] = test system: healthy adult subjects and type 2 diabetes mellitus adult subjects; experiment: Clinical study (SAD, food effect, MAD cohorts) in healthy and type 2 diabetes mellitus subjects; type: in vivo, human
Procedure: (§2) In Experimental Phase 1 (SAD cohorts), 40 healthy adult subjects were randomized into 4 dose escalating cohorts of 10. In each cohort, subjects were randomized at 7:3 (active and placebo) in sequential order. Each cohort was composed of 2 sentinel subjects randomized at 1:1 (active and placebo), followed by 8 additional subjects randomized at 3:1 (active and placebo). Doses were 100 mg, 200 mg, 400 mg, and 600 mg.
(§3) In Experimental Phase 1 (3-period crossover, food effect study), each cohort of 12 healthy adult subjects was randomized at 1:1:1:1:1:1 in a 3-period crossover study with 6 treatment sequences.
(§4) In Experimental Phase 2 (MAD cohorts), 1 cohort of 16 healthy adult subjects was randomized at 3:1 (active and placebo), and 7 cohorts of type 2 diabetes mellitus adult subjects were randomized at 5:1 (active and placebo) to obtain safety and efficacy data to identify the potential optimal biological dose (OBD) and a recommended Phase 2 dose (RP2D). Doses were 100 mg, 200 mg, 400 mg, and 600 mg.

[10] = as above; type: in vivo, human; conditions: human, in vivo, oral; for AUC: read-out: Exposure: AUC; for Cmax: read-out: Exposure: Cmax
Procedure: as §2, §3, §4

[11] = Homo sapiens, read-out: Average IC50 ± Standard Deviation

## C=CC(=O)N[C@@H]1CCCN(Cc2ccnc(C(=O)Nc3ccc(-c4cc5c(N6CCOCC6)ncnc5[nH]4)cc3)c2)C1 [Compound A, N-[4-[4-(4-morpholinyl)-7H-pyrrolo[2,3-d]pyrimidin-6-yl]phenyl]-4-[[3(R)-[(1-oxo-2-propen-1-yl)amino]-1-piperidinyl]methyl]-2-pyridinecarboxamide]
[1]
  reduction of Menin protein expression: up to 60%
[2]
  KRAS and MEN1 expression levels: marked reduction; also recorded: dramatically decreased
[3]
  Average % Max Inhibition by Compound A: 99.6%
[4]; 28-day daily dosing, Day 29
  absolute reduction in HbA1C versus vehicle: 3.5%
[4]; 85 and 170 mg/kg
  fasting blood glucose levels, mid- and high-dose arms: reduction in fasting blood glucose levels similar to liraglutide
[4]; Day 25, vs vehicle
  glycemic control by oral glucose tolerance test (OGTT): improved glycemic control
[4]; Day 29
  HbA1c absolute amount lower than the liraglutide group: 1.8%
  HbA1c reduced from vehicle (relative): 33%
[4]; Day 29, reduced from vehicle
  HbA1c relative reduction stated beside the difference to the liraglutide group: 20%
[4]; daily for twenty-eight days
  tolerability: All animals tolerated Compound 10 well
[4]; effects lasting fifteen days after the last dose
  HbA1c at all doses tested: significant reductions in HbA1c
[4]; high-dose group, up to Day 29, listed as Compound 10
  4-hour fasting blood glucose, high-dose arm: strong reduction; also recorded: sustained and significant reduction in fasting blood glucose
[4]; twenty-eight days of treatment (FIG. 28)
  body weight and fasting blood glucose levels over time: progressive increase in body weight and fasting blood glucose levels over time
[4]; up to last day of dosing and two weeks post last dose
  Fasting insulin and c-peptide levels: elevated
[5]
  Average % Max Inhibition by Compound A: 99.2%
[6]; DHL, THL, and DEL DLBCL cell lines
  cell lethality: > 90%
[6]; VAL, U2932
  growth inhibition of THL and DEL cell line models: complete growth inhibition
[7]; [11]
  IC50: 0.37 ± 0.012 µM
[7]
  Average % Max Inhibition by Compound A: 92.4%
[8]; [11]
  IC50: 0.65 ± 0.26 µM
[8]
  Average % Max Inhibition by Compound A: 99.6%
[9]; 4 weeks of treatment
  dose discontinuations: no dose discontinuations
  episodes of symptomatic hypoglycemia: No episodes of symptomatic hypoglycemia occurred in any patients
  safety profile: well-tolerated safety profile
  severe or serious TEAEs: No severe or serious TEAEs were observed
[9]; Cohort 2
  Mean Change in HbA1c % at Week 4: (−0.25) %
  Median Change in HbA1c % at Week 4: −0.3%
[9]; Cohort 3
  Mean Change in HbA1c % at Week 4: (−0.81) %
  Median Change in HbA1c % at Week 4: −1.0%
[9]; any reduction
  patients who achieved a reduction in HbA1c: 89%
[9]; cohort when taken with food
  median change of Hb1Ac: -0.3%
[9]; cohort when taken without food
  median change of Hb1Ac: -1%
[9]; human, in vivo
  patients who achieved ≥0.5% reduction in HbA1c: 78%
  patients who achieved ≥1% reduction in HbA1c: 56%
[10]; Cohort 2 (taken with food)
  AUC: 84.3 ng·h/mL
  Cmax: 34.8 ng/mL
[10]; Cohort 3 (taken without food)
  AUC: 224 ng·h/mL
  Cmax: 94.2 ng/mL
